Read-outs that look alike come from different tables or passages of the source.
Assays:
HL-60, MOLT-4, K562 = conditions: 24 or 72 vs. 2 h
Procedure: (§1) Primary leukemia cells for in vitro studies were isolated from BM or PB obtained from AML or ALL patients enrolled on a separate University of Maryland, Baltimore, IRB-approved protocol for tissue collection and not treated on this clinical study. The cells were isolated by gradient centrifugation using LSM (Mediatech) according to the manufacturer’s protocol. Cells were used either fresh or after viable freezing (FBS/10 % DMSO). Primary leukemia cells were cultured in RPMI 1640 (Invitrogen, Grand Island, NY, USA) supplemented with 15 % heat-inactivated FBS (HyClone Laboratories Inc., Red Bank, NJ, USA) and 200 mM L-Glutamine (Invitrogen). Leukemia cell lines HL-60 (AML), MOLT-4 (T cell ALL), and K562 (chronic myelogenous leukemia [CML] in erythroid blast transformation) were purchased from American Type Culture Collection (ATCC, Manassas, VA, USA) and cultured in RPMI 1640 (Invitrogen) supplemented with 10 % heat-inactivated FBS (HyClone Laboratories Inc.) and 200 mM L-Glutamine (Invitrogen).

[1] = test system: primary AML cells (AML 08); experiment: Annexin V/PI apoptosis assay, primary AML cells; assay type: cell-based, human; conditions: 2, 20, and 200 nM
Procedure: as §1

[2] = test system: PARP, Mcl-1, p-Rb in primary leukemia samples; experiment: Western blot, primary leukemia cells in vitro; assay type: cell-based, human; conditions: 6-h exposure, ≥20 nM; more prominent at 200 nM and 24 h
Procedure: (§2) Primary leukemia cells for in vitro studies were isolated from BM or PB obtained from AML or ALL patients enrolled on a separate University of Maryland, Baltimore, IRB-approved protocol for tissue collection and not treated on this clinical study. The cells were isolated by gradient centrifugation using LSM (Mediatech) according to the manufacturer’s protocol. Cells were used either fresh or after viable freezing (FBS/10 % DMSO). Primary leukemia cells were cultured in RPMI 1640 (Invitrogen, Grand Island, NY, USA) supplemented with 15 % heat-inactivated FBS (HyClone Laboratories Inc., Red Bank, NJ, USA) and 200 mM L-Glutamine (Invitrogen). […]
(§3) For Western blot analysis, leukemia cell pellets (primary leukemia cells, HL-60, MOLT-4, K562) were washed with PBS and lysed with RIPA buffer (Sigma-Aldrich, St. Louis, MO, USA) supplemented with Complete Mini™ protease inhibitor and PHOStop™ phosphatase inhibitors (Roche). […] Blots were washed three times, and the signal was detected with Amersham™ ECL™ detection systems (GE Healthcare, Pittsburgh, PA, USA). […] The Western blot signals were measured by densitometry using ImageJ 1.45I software (NIH, Bethesda, USA).

[3] = test system: Mcl-1, PARP cleavage in HL-60, MOLT-4, K562; experiment: Western blot, leukemia cell lines in vitro; assay type: cell-based, human; conditions: most prominent with 6 and 24 h exposure
Procedure: as §2, §3

[4] = cited from earlier work
[5] = plasma pharmacokinetics (HPLC-MS/MS, population PK model); conditions: human, intravenous
Procedure: Blood samples for PK evaluations (3 mL each) were collected into prechilled K2 EDTA tubes at 0, 0.25–0.5, 1–2, and 4 h after the end of the 2-h infusion on day 1 of cycles 1, 2, and 3. Samples were kept on ice and centrifuged within 1 h of collection at 2,700g/4 °C for 10 min; separated plasma was immediately frozen on dry ice and then stored at −20 °C or below.
A 2-compartment PPK model was developed with data from two phase I studies in solid tumors [31, 32]. The model fits were conducted using NONMEM V, level 1.1 (GloboMax LLC), and a first-order conditional estimation method was employed for all model runs. The model included between-subject variability on clearance and volume of distribution, and mixed error terms.

SMILES: CCc1cnn2c(NCc3ccc[n+]([O-])c3)cc(N3CCCC[C@H]3CCO)nc12 [Dinaciclib]
- growth inhibitory and apoptosis-inducing effect of prolonged exposure (HL-60, MOLT-4, K562): more potent growth inhibitory and apoptosis-inducing effect
- apoptosis (AnnexinV/PI flow cytometry) [1]: induced apoptosis in primary AML cells (AML 08) in a time- and concentration-dependent manner
- Mcl-1 expression and PARP cleavage [2]: down-regulation of Mcl-1 and induction of PARP cleavage were observed in all 5 primary leukemia samples
- Mcl-1 expression and PARP cleavage [3]: down-regulates the expression of the anti-apoptotic protein Mcl-1 independently of caspases and induces PARP cleavage
- recommended phase II dose (RPTD) ([4]; 2-h infusion on days 1, 8, 15 every 28 days): 12 mg/m^2
- recommended phase II dose (RPTD) ([4]; 2-h infusion once every 21 days): 50 mg/m^2
- average dinaciclib concentration ([4]; 8-h continuous infusion, 7.4–50 mg/m^2, preliminary): 200–1,031 nM
- average dinaciclib concentration ([4]; 24-h continuous infusion, 7.4–14.6 mg/m^2, preliminary): 82.3 to 184 nM
- Cmax [5]: > 4 µM
- concentration at 2 h ([5]; 40 mg/m^2): 1010 ng/mL
- concentration at 2.25 h ([5]; 40 mg/m^2): 1100 ng/mL
- concentration at 4 h ([5]; 40 mg/m^2): 118 ng/mL
- concentration at 6 h ([5]; 40 mg/m^2): 42.4 ng/mL
- AUC ([5]; 50 mg/m^2): 3560 ng·h/mL
- concentration at 2.25 h ([5]; 50 mg/m^2): 707 ng/mL
- concentration at 2.5 h ([5]; 50 mg/m^2): 354 ng/mL
- concentration at 3 h ([5]; 50 mg/m^2): 195 ng/mL
- concentration at 4 h ([5]; 50 mg/m^2): 139 ng/mL
- concentration at 6 h ([5]; 50 mg/m^2): 36.7 ng/mL
- AUC ([5]; 70 mg/m^2): 4980 ng·h/mL
- concentration at 2 h ([5]; 70 mg/m^2): 1700 ng/mL
- concentration at 2.25 h ([5]; 70 mg/m^2): 724 ng/mL
- concentration at 2.5 h ([5]; 70 mg/m^2): 457 ng/mL
- concentration at 3 h ([5]; 70 mg/m^2): 307 ng/mL
- concentration at 4 h ([5]; 70 mg/m^2): 125 ng/mL
- concentration at 6 h ([5]; 70 mg/m^2): 52.2 ng/mL

From paper PMC3784060 (Cancer Chemotherapy and Pharmacology, 2013)
